The record followed here is paper PMC6171417, “Carbonic anhydrase inhibition with a series of novel benzenesulfonamide-triazole conjugates” (Journal of Enzyme Inhibition and Medicinal Chemistry, 2018).

Holding throughout (assay): cells
What all share (design): species or system NCI human tumour cell line panel; NCI one-dose anti-proliferative screen, human tumour cell line panel, growth inhibition percent (GI%)

One assay has as its system HOP-92. The conditions noted are these: Homo sapiens, HOP-92; growth inhibition (GI%), single dose. As for the experimental part:
(§1) Ten of the newly synthesised 1,2,3-triazolo benzenesulfonamide derivatives were selected by NCI (Bethesda, MD) for evaluating their anti-proliferative activity. The selected compounds were subjected to a primary in vitro one-dose ([…]) anti-proliferative assay against 57 human tumour cell lines following the previously reported method[30] and their obtained growth inhibition percent (GI%) are presented in Table 2. A subset of ten triazolo-benzenesulfonamides (3, 5, 6, 7, 9, 11, 16–18, and 20) were selected and subjected to an in vitro anti-proliferative screening against a panel of 57 cancer cell lines at NCI at an initial high dose ([…]). The human cell lines used were derived from nine cancer types: leukaemia, lung, colon, CNS, melanoma, ovarian, renal, prostate and breast cancers.

The test system of the next assay is MOLT-4. The note with it: Homo sapiens, MOLT-4; growth inhibition (GI%), single dose. On the procedure: as §1
For another assay, the system named is UACC-62. The note with it: Homo sapiens, UACC-62; growth inhibition (GI%), single dose. On the procedure:
as §1

Another assay relates to SR. The note with it: Homo sapiens, SR; growth inhibition (GI%), single dose. On the procedure: as §1
A further assay concerns RPMI-8226. The note with it: Homo sapiens, RPMI-8226; growth inhibition (GI%), single dose. As for the experimental part:
as §1

A further assay relates to OVCAR-8. The note with it: Homo sapiens, OVCAR-8; growth inhibition (GI%), single dose. On the procedure: as §1
The subject of another assay is UACC-257. The conditions noted are these: Homo sapiens, UACC-257; growth inhibition (GI%), single dose. As for the experimental part:
as §1

In the next assay the test system is CCRF-CEM. The conditions noted are these: Homo sapiens, CCRF-CEM; growth inhibition (GI%), single dose. On the procedure:
as §1

In another assay the test system is SNB-75. The conditions noted are these: Homo sapiens, SNB-75; growth inhibition (GI%), single dose. On the procedure:
as §1

For another assay, the system named is A549/ATCC. The conditions noted are these: Homo sapiens, A549; growth inhibition (GI%), single dose. On the procedure: as §1
In a further assay the test system is UO-31. The note with it: Homo sapiens, UO-31; growth inhibition (GI%), single dose. As for the experimental part: as §1
The next assay deals with MCF7. The conditions noted are these: Homo sapiens, MCF7; growth inhibition (GI%), single dose. On the procedure: as §1
Another assay concerns A498. The note with it: Homo sapiens, A498; growth inhibition (GI%), single dose. As for the experimental part:
as §1

A further assay concerns HCT-116. The note with it: Homo sapiens, HCT-116; growth inhibition (GI%), single dose. On the procedure:
as §1

In another assay the test system is SK-OV-3. The note with it: Homo sapiens, SK-OV-3; growth inhibition (GI%), single dose. As for the experimental part:
as §1

Another assay concerns HL-60(TB). The conditions noted are these: Homo sapiens, HL-60; growth inhibition (GI%), single dose. On the procedure:
as §1

The subject of another assay is HT29. The conditions noted are these: Homo sapiens, HT-29; growth inhibition (GI%), single dose. As for the experimental part:
as §1

A further assay concerns NCI-H23. The conditions noted are these: Homo sapiens, NCI-H23; growth inhibition (GI%), single dose. As for the experimental part:
as §1

For another assay, the system named is HS 578T. The conditions noted are these: Homo sapiens, Hs-578T; growth inhibition (GI%), single dose. On the procedure:
as §1

A further assay has as its system SNB-19. The note with it: Homo sapiens, SNB-19; growth inhibition (GI%), single dose. On the procedure: as §1

As for `N#Cc1nnn(-c2ccc(S(N)(=O)=O)cc2)c1/N=C/c1ccc(Cl)cc1` [compound 9, 9], the inhibition at 10 µM with HOP-92 was determined as 12.8%; with MOLT-4 it was 6.9%; with UACC-62 it was 6%; in the assay with SR, 15.8%; with RPMI-8226, 12.3%; with OVCAR-8, 7.4%. In addition, the inhibition at 10 µM worked out at 2.3% with UACC-257; 15.9% in the assay on CCRF-CEM; 2.9% with SNB-75; 16.1% in the assay with A549/ATCC; 0.3% with UO-31; 4.7% with MCF7. Moreover, the inhibition at 10 µM turned out to be 8.6% in the assay on A498; 1.2% in the assay with HCT-116; 9.9% in the assay with SK-OV-3; 12.6% in the assay with HL-60(TB); 0.4% in the assay on HT29.

Regarding `Nc1nc(=S)[nH]c2c1nnn2-c1ccc(S(N)(=O)=O)cc1` [compound 18, 4-(7-amino-5-thioxo-4,5-dihydro-3H-[1,2,3]triazolo[4,5-d]pyrimidin-3-yl)benzenesulfonamide], the inhibition at 10 µM worked out at 4.7% with NCI-H23; 10.6% in the assay on HOP-92; 21.3% in the assay with MOLT-4; 5.6% with UACC-62; 1.7% in the assay with SR; 12.3% in the assay with RPMI-8226. The inhibition at 10 µM in the assay on OVCAR-8 stood at 3.7%; in the assay with UACC-257, 6.1%; in the assay with CCRF-CEM, 17.8%; in the assay with SNB-75, 13.9%; in the assay with HS 578T, 9.8%; in the assay on A549/ATCC, 5.1%. Also, the inhibition at 10 µM is 13.8% in the assay with UO-31; 2.9% in the assay with MCF7; 5.5% in the assay on A498; 1.7% in the assay on SNB-19; 11.6% in the assay with SK-OV-3; 26.1% with HL-60(TB). The molecule also had an inhibition at 10 µM with HT29 of 10.8%.

On to `N#Cc1nnn(-c2ccc(S(N)(=O)=O)cc2)c1N` [compound 3, 3], for which the inhibition at 10 µM with HOP-92 worked out at 8.2%; with MOLT-4, 13.3%; in the assay with UACC-62, 5.5%; with SR, 3.5%; in the assay with RPMI-8226, 8.5%; with OVCAR-8 it was 4.6%. Besides, the inhibition at 10 µM in the assay with UACC-257 stood at 10.2%; in the assay on CCRF-CEM, 15.3%; in the assay with SNB-75 it was 15%; in the assay with HS 578T, 5.9%; with A549/ATCC, 4.2%; in the assay on UO-31 it was 14.5%. Moreover, the inhibition at 10 µM with MCF7 is 5.5%; in the assay with A498, 13.6%; in the assay on SNB-19, 2.9%; with HCT-116, 7.1%; with SK-OV-3 it was 4.6%; in the assay with HL-60(TB), 6.5%. The molecule further gave an inhibition at 10 µM in the assay on HT29 of 9.4%.

In the case of `N#Cc1nnn(-c2ccc(S(N)(=O)=O)cc2)c1NS(=O)(=O)c1ccccc1` [compound 11, N-(4-cyano-1-(4-sulfamoylphenyl)-1H-1,2,3-triazol-5-yl)benzenesulfonamide], the inhibition at 10 µM with NCI-H23 was found to be 4.1%; in the assay with HOP-92, 4.2%; in the assay with MOLT-4 it was 11.2%; in the assay with UACC-62, 5.9%; in the assay with SR it was 9.2%; in the assay with RPMI-8226, 7.1%. In addition, the inhibition at 10 µM came out at 2.9% in the assay with OVCAR-8; 8.1% with UACC-257; 6.7% in the assay on CCRF-CEM; 10.2% with SNB-75; 11.8% in the assay on A549/ATCC; 13.4% in the assay with UO-31. Moreover, the inhibition at 10 µM was determined as 1.7% with MCF7; 2.8% with SNB-19; 2.1% in the assay on HCT-116; 15.1% with SK-OV-3; 10.7% in the assay with HL-60(TB); 5.1% with HT29.

For `N#Cc1nnn(-c2ccc(S(N)(=O)=O)cc2)c1NCC(=O)c1ccccc1` [compound 7, 7], the inhibition at 10 µM in the assay with NCI-H23 amounted to 2.1%; with HOP-92 it was 13.5%; in the assay with MOLT-4, 10.2%; with UACC-62, 4%; with SR, 9.3%; in the assay on RPMI-8226 it was 12.5%. The inhibition at 10 µM in the assay with OVCAR-8 was determined as 2.4%; in the assay on UACC-257, 11.7%; in the assay on CCRF-CEM, 16.4%; in the assay on SNB-75 it was 20.1%; in the assay with HS 578T it was 1.7%; in the assay on A549/ATCC it was 6.7%. Further, the inhibition at 10 µM with UO-31 came out at 21.1%; in the assay with MCF7, 6.7%; in the assay with SNB-19, 7.8%; with HCT-116, 5.1%; in the assay with SK-OV-3 it was 8.2%; with HL-60(TB) it was 11.6%. This molecule also gave an inhibition at 10 µM in the assay on HT29 of 4.5%.

Take `CCn1c(=S)[nH]c2c(nnn2-c2ccc(S(N)(=O)=O)cc2)c1=N` [compound 20, 4-(6-ethyl-7-imino-5-thioxo-4,5,6,7-tetrahydro-3H-[1,2,3]triazolo[4,5-d]pyrimidin-3-yl)benzenesulfonamide]: the inhibition at 10 µM in the assay on NCI-H23 was found to be 9.4%; in the assay with HOP-92, 18%; in the assay on MOLT-4 it was 9.1%; in the assay with UACC-62, 4.3%; in the assay with SR, 7.5%; with RPMI-8226, 12.1%. In addition, the inhibition at 10 µM amounted to 4.8% with OVCAR-8; 6.2% in the assay with UACC-257; 20.9% in the assay on CCRF-CEM; 3.3% in the assay on SNB-75; 2.5% in the assay on HS 578T; 12.2% in the assay with A549/ATCC. Moreover, the inhibition at 10 µM came out at 7.3% in the assay with UO-31; 4.9% with MCF7; 6.2% with A498; 1.9% in the assay on SNB-19; 3.6% in the assay on SK-OV-3; 8.9% in the assay with HL-60(TB).
